US9446017B2, “Compositions and methods for treating herpes simplex virus” (Augusta University Research Institute, Inc., priority 2005, dated 2016)
Several values for one entry are separate records, joined by “and”; a condition that tells them apart may be missing. Equal values may be shown once.

Assays:
Assay type in all cases: cell-based
HSV1 [1] = test: Fluorescence microscopy of GFP-HSV1 lytic cycle in Vero cells; details: for virus replication and formation of virions: virus treated with 100 μM
Procedure: Cells were grown on glass cover slips and allowed to reach confluence. They were then infected with either control HSV or previously treated HSV for 1 hour. Time course studies were performed in which the virus was allowed to adsorb for 1 hour and then aspirated. Cells were washed with PBS and media was added to each well. After a period of 8, 10, and 12 hours, cells were then fixed with a 1:1 acetone and methanol solution and visualized under a Zeiss Axiovision fluorescence microscope using differential interference contrast settings.
HSV1/Vero cells were used as positive controls and Vero cells were used as negative control. 75 μM EGCG ester-HSV1/Vero cells were also monitored and compared to controls. GFP-HSV1, DAPI stained nucleus and lysosome stain were used to identify cytopathic effects on Vero cells. The course study was performed in triplicates.

HSV1 [2] = test: PCR-based assay of viral DNA, band intensity on agarose gel; details: for DNA band intensity, primers for glycoprotein D, GFP and VP11/12: HSV1 treated with 75 μM
Text: Nine sets of primers were designed to prime different regions of the HSV1 genome based on published sequences. Two sets of primers were designed to target HSV I glycoprotein D. These include 5′-[…]-3′ (SEQ ID NO:2) for the forward and 5′-[…]-3′ (SEQ ID NO:3) for the reverse. The second set includes 5′-[…]-3′ (SEQ ID NO:4) for the forward and 5′[…]-3′ (SEQ ID NO:5) for the reverse. Next, two sets of primers were designed to target HSV1 glycoprotein B. They are the following: 5′[…]-3′ (SEQ ID NO:6) for the forward and 5′-[…]-3′ (SEQ ID NO:7) for the reverse. The second set includes 5′-[…]-3′(SEQ ID NO:8) for the forward and 5′-[…]-3′ (SEQ ID NO:9) for the reverse. A third set of primers had been previously designed and published on the book Herpes Simplex Virus Protocols by S. Moira Brown and Alasdair R. MacLean. The set includes 5′[…]-3′ (SEQ ID NO:10) for the forward and 5′-[…]-3′ (SEQ ID NO:11) for the reverse. A set of primers was designed to target the Green Fluorescent protein attached to the UL46 gene of HSV 1. It includes 5′-[…]-3′ (SEQ ID NO:14) for the forward and 5′-[…]-3′ (SEQ ID NO:15) for the reverse. A second set of primers designed for the GFP had been previously designed 42. It includes 5′-[…]-3′ (SEQ ID NO:12) for the forward and 5′-[…]-3′ (SEQ ID NO:13) for the reverse. Finally, two sets of primers were designed to target HSV1 tegument protein VP11/12 that corresponds to the UL46 gene. They are the following: 5′-[…]-3′ (SEQ ID NO:16) for the forward and 5′-[…]-3′ (SEQ ID NO:17) for the reverse. The second set includes 5′-[…]-3′ (SEQ ID NO:18) for the forward and 5′[…]-3′ (SEQ ID NO:19) for the reverse. The reaction mix included 1 μL of the extracted DNA, 1 μL of forward and 1 μL of reverse primers, 12.5 μL of Master Mix, and 9.5 μL of diH2O. The mix was put into PCR tubes and placed into a Labnet MultiGene II thermal cycler (Labnet International, Edison N.J.). The reaction profile was initial denaturation at 95° C. for 2 minutes followed by cycles of denaturation at 95° C. for 30 seconds, annealing at 60° C. for 1 minute and extension at 72° C. for 30 seconds. The last step included a final extension period at 72° C. for 10 minutes. […]
Polymerase chain reaction products were analyzed and visualized on 1% agarose gels. […] The gel was then analyzed under UV light using Kodak Image Station 440 CF (Perkin Elmer Life Sciences, Waltham, Mass.).
Cells were grown on 60 mm plates and allowed to reach confluency. […] DNA concentration was then measured by using a Nanodrop Specrophotometer.
DNA extracted from HSV1/Vero cells and EGCG-ester HSV1/Vero cells was purified and isolated and the amount and purity was determined by Nanodrop spectrophotometer ND1000. […]

HSV1 [3] = test: Real time PCR of HSV1 glycoprotein D; details: for fold difference in the amount of glycoprotein D DNA vs HSV1/Vero: Ct based; for inhibits HSV1: FIG. 10
Procedure: A set of primer that primes HSV1 glycoprotein D was designed for use in Real time polymerase chain reaction. This set includes 5″-[…]-3′ (SEQ ID NO:20) for the forward and 5′[…]-3′ (SEQ ID NO:21) for the reverse. Each tube (except the negative controls-no DNA) contained […] of Fast SYBR green master mix (ABI Fast SYBR Green Master Mix), 1 μL of forward primer, 1 μL of reverse primer, […] of genomic DNA and 6 μL of […]. The samples were run on an ABI StepOnePlus Real-Time PCR System. The Run methods were: a holding stage at 95° C. for 5 minutes followed by 40 cycles of denaturation at 95° C. for 1 minute, annealing at 60° C. for 1 minute and extension at 72° C. for 30 seconds. Next, the melting curve stage included 95° C. for 15 seconds, followed by 60° C. for 1 minute, and 95° C. for 15 seconds.
Cells were grown on 60 mm plates and allowed to reach confluency. Cells were then infected with HSV I treated and HSV1 non-treated for 1 hour at 37° C. and 5% CO2. After absorption time, cells were washed with PBS and media was added to the plates. After 12 hours, cells were trypsinized and DNA was extracted using the DNeasy Blood and Tissue Handbook (Qiagen 2006). DNA concentration was then measured by using a Nanodrop Specrophotometer.
The process of real time PCR works by collecting fluorescence data at the end of each cycle of the reaction. The SYBR green dye used in the experiment binds to the double stranded PCR product causing the PCR product to fluoresce. As the reaction continues the instrument recalls the threshold for each sample. The threshold cycle (Ct) is the critical cycle at which the first significance increase in fluorescence is detected. Once the PCR cycles ended, the data were collected and the Ct values for each of the samples were analyzed and the relative quantity (RQ) of fluorescence was reported. The standard for comparing Ct values is that a difference in one Ct is equivalent to a two-fold difference in the amount of DNA. […] of DNA was used for all samples; cells only, HSV1/Vero, and EGCG-ester HSV1/Vero.

[4] = 75 μM, 8 to 12 hours post infection

O=C(O[C@@H]1Cc2c(O)cc(O)cc2O[C@@H]1c1cc(O)c(O)c(O)c1)c1cc(O)c(O)c(O)c1 [EGCG, (−)-epigallocatechin-3-gallate, reference compound]
virus replication and formation of virions (HSV1 [1]): not able to replicate and form more virions | DNA band intensity, primers for glycoprotein D, GFP and VP11/12 (HSV1 [2]): decreased | fold difference in the amount of glycoprotein D DNA vs HSV1/Vero (HSV1 [3]): 32 fold | inhibits HSV1 (HSV1 [3]): 95%

CCCCCCCCCCCCCCCC(=O)Oc1c(O)cc([C@H]2Oc3cc(O)cc(O)c3C[C@H]2OC(=O)c2cc(O)c(O)c(O)c2)cc1O [EGCG-ester]
inhibition of HSV1 infections (HSV1 [1]; [4]): able to inhibit HSV1 infections | visible viral particles in infected cells (HSV1 [1]; [4]): almost no virions | GFP expression in green fluorescence images (HSV1 [1]; 75 μM, 8 hrs post infection): almost none | virus replication and formation of virions (HSV1 [1]): not able to replicate and form more virions | band intensity of glycoprotein D PCR product, average (HSV1 [2]; 75 μM, control average 525.29): 400.05 | band intensity of glycoprotein D PCR product (single reading) (HSV1 [2]; 75 μM, control readings 445.92, 588.24, 541.73): 353.87 and 438.47 and 407.82 | DNA band intensity, primers for glycoprotein D, GFP and VP11/12 (HSV1 [2]): further decreased | fold difference in the amount of glycoprotein D DNA vs HSV1/Vero (HSV1 [3]): 256 fold | inhibits HSV1 (HSV1 [3]): 99.46%
